From the supplement of paper PMC9938120

How the values were obtained:
Experiment in all cases: drug sensitivity score (DSS3, normalised partial AUC of % inhibition dose-response) (DSS (score)); higher = more sensitive (stronger inhibition of viability); extreme values may be limits of the assay
[1] = system: FMOC02_1 (patient-derived low-grade serous ovarian cancer cells); settings: 72 h; library: FO5A; assay format: 2D, 384-well, CellTiter-Glo
Outline: (§1)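 Cells were dispensed onto 384-well flat clear-bottom plates already holding compounds at five concentrations over a 10,000-fold range, using patient-derived ovarian cancer cells at passage under 10. Incubation lasted 72 h at 37 °C in 5% CO2, after which CellTiter-Glo viability data were processed in Breeze. Higher drug sensitivity scores, each a partial area under the percent-inhibition dose-response curve divided by the log of the upper asymptote, mean more sensitive cells.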

[2] = system: FMOC02_2 (patient-derived low-grade serous ovarian cancer cells); settings: 72 h; library: FO5A; assay format: 2D, 384-well, CellTiter-Glo
Outline: as §1

[3] = system: FMOC02_3 (patient-derived low-grade serous ovarian cancer cells); settings: 72 h; library: FO5A; assay format: 2D, 384-well, CellTiter-Glo
Outline: as §1

[4] = system: FMOC03 (patient-derived mucinous ovarian cancer cells); settings: 72 h; library: FO5A; assay format: 2D, 384-well, CellTiter-Glo
Outline: as §1

[5] = system: FMOC04 (patient-derived high-grade serous ovarian cancer cells); settings: 72 h; library: FO5A; assay format: 2D, 384-well, CellTiter-Glo
Outline: as §1

[6] = system: FMOC06 (patient-derived mucinous ovarian cancer cells); settings: 72 h; library: FO5A; assay format: 2D, 384-well, CellTiter-Glo
Outline: as §1

[7] = system: FMOC09 (patient-derived high-grade serous ovarian cancer cells); settings: 72 h; library: FO5A; assay format: 2D, 384-well, CellTiter-Glo
Outline: as §1

[8] = system: FMOC11 (patient-derived high-grade serous ovarian cancer cells); settings: 72 h; library: FO5A; assay format: 2D, 384-well, CellTiter-Glo
Outline: as §1

[9] = system: FMOC14 (patient-derived high-grade serous ovarian cancer cells); settings: 72 h; library: FO5A; assay format: 2D, 384-well, CellTiter-Glo
Outline: as §1

[10] = system: FMOC17 (patient-derived low-grade serous ovarian cancer cells); settings: 72 h; library: FO5A; assay format: 2D, 384-well, CellTiter-Glo
Outline: as §1

[11] = system: FMOC22 (patient-derived mucinous ovarian cancer cells); settings: 72 h; library: FO5A; assay format: 2D, 384-well, CellTiter-Glo
Outline: as §1

[12] = system: FMOC24 (patient-derived high-grade serous ovarian cancer cells); settings: 72 h; library: FO5A; assay format: 2D, 384-well, CellTiter-Glo
Outline: as §1

[13] = system: FMOC25_1 (patient-derived low-grade serous ovarian cancer cells); settings: 72 h; library: FO4B; assay format: 2D, 384-well, CellTiter-Glo
Outline: as §1

[14] = system: FMOC25_2 (patient-derived low-grade serous ovarian cancer cells); settings: 72 h; library: FO5A; assay format: 2D, 384-well, CellTiter-Glo
Outline: as §1

[15] = system: FMOC27 (patient-derived low-grade serous ovarian cancer cells); settings: 72 h; library: FO5A; assay format: 2D, 384-well, CellTiter-Glo
Outline: as §1

[16] = system: FMOC28 (patient-derived low-grade serous ovarian cancer cells); settings: 72 h; library: FO5A; assay format: 2D, 384-well, CellTiter-Glo
Outline: as §1

`CNC(=O)c1cccc2cc(Oc3ccnc4cc(OCC5(N)CC5)c(OC)cc34)ccc12` [Lucitanib] was tested, and the drug sensitivity score [1] was 2.6, the drug sensitivity score [2] was 0.4 and the drug sensitivity score [3] was 1.7. For the same compound, the drug sensitivity score [4] was 0.1, the drug sensitivity score [5] was 0.4 and the drug sensitivity score [6] was 0.3. For the same compound, the drug sensitivity score [7] was 1.2, the drug sensitivity score [8] was 1.1 and the drug sensitivity score [9] was 0. For the same compound, the drug sensitivity score [10] was 0.2, the drug sensitivity score [11] was 0.2 and the drug sensitivity score [12] was 1.45. It also gave a drug sensitivity score [13] of 0.3, a drug sensitivity score [14] of 1.4 and a drug sensitivity score [15] of 1.4. The drug sensitivity score [16] was 4.1.
For `O=C(O)CC[C@H]1CC[C@@](c2cc(F)ccc2F)(S(=O)(=O)c2ccc(Cl)cc2)CC1` [MK-0752], the drug sensitivity score [1] was 0, the drug sensitivity score [2] was 0 and the drug sensitivity score [3] was 0.7. It also gave a drug sensitivity score [4] of 0, a drug sensitivity score [5] of 0 and a drug sensitivity score [6] of 0.3. For the same compound, the drug sensitivity score [7] was 0, the drug sensitivity score [8] was 0 and the drug sensitivity score [9] was 0. It also gave a drug sensitivity score [10] of 0, a drug sensitivity score [11] of 0 and a drug sensitivity score [12] of 0. For the same compound, the drug sensitivity score [13] was 0, the drug sensitivity score [14] was 0 and the drug sensitivity score [15] was 0. It also gave a drug sensitivity score [16] of 0.2.
For `NC1(c2ccc(-c3nc4ccn5c(=O)[nH]nc5c4cc3-c3ccccc3)cc2)CCC1` [MK-2206], the drug sensitivity score [1] was 4.9, the drug sensitivity score [2] was 7.5 and the drug sensitivity score [3] was 6.9. It also gave a drug sensitivity score [4] of 2.5, a drug sensitivity score [5] of 1.75 and a drug sensitivity score [6] of 4.8. For the same compound, the drug sensitivity score [7] was 2.7, the drug sensitivity score [8] was 0.9 and the drug sensitivity score [9] was 2. It also gave a drug sensitivity score [10] of 4.2, a drug sensitivity score [11] of 0.8 and a drug sensitivity score [12] of 1.5. It also gave a drug sensitivity score [13] of 4.9, a drug sensitivity score [14] of 3 and a drug sensitivity score [15] of 1.5. The drug sensitivity score [16] was 5.5.
With `O=C(c1cccc(Cl)c1F)N1CCN(Cc2cccc(Nc3nccs3)n2)CC1` [MK-8745] the drug sensitivity score [1] was 7.1, the drug sensitivity score [2] was 6.1 and the drug sensitivity score [3] was 5.7. It also gave a drug sensitivity score [4] of 1.3, a drug sensitivity score [5] of 1.3 and a drug sensitivity score [6] of 0. For the same compound, the drug sensitivity score [7] was 0.2, the drug sensitivity score [8] was 4 and the drug sensitivity score [9] was 0.2. The drug sensitivity score [10] was 2.1, the drug sensitivity score [11] was 1.8 and the drug sensitivity score [12] was 0.2. It also gave a drug sensitivity score [13] of 0, a drug sensitivity score [14] of 4 and a drug sensitivity score [15] of 0. It also gave a drug sensitivity score [16] of 5.8.
With `Cn1cc(-c2cnn3c(N)c(Br)c([C@@H]4CCCNC4)nc23)cn1` [MK-8776] the drug sensitivity score [1] was 2, the drug sensitivity score [2] was 0 and the drug sensitivity score [3] was 1.5. The drug sensitivity score [4] was 0, the drug sensitivity score [5] was 2.45 and the drug sensitivity score [6] was 0. It also gave a drug sensitivity score [7] of 0, a drug sensitivity score [8] of 2.4 and a drug sensitivity score [9] of 0.9. For the same compound, the drug sensitivity score [10] was 0.6, the drug sensitivity score [11] was 0 and the drug sensitivity score [12] was 0.3. For the same compound, the drug sensitivity score [13] was 1.4, the drug sensitivity score [14] was 2.8 and the drug sensitivity score [15] was 0. It also gave a drug sensitivity score [16] of 2.5.
`Cc1cnc(-c2ccccc2C(C)C)nc1NCc1ccc(-n2ccnn2)cc1` [ML323] gave a drug sensitivity score [1] of 0.1, a drug sensitivity score [2] of 3.1 and a drug sensitivity score [3] of 0.2. For the same compound, the drug sensitivity score [4] was 0.9, the drug sensitivity score [5] was 0 and the drug sensitivity score [6] was 0. For the same compound, the drug sensitivity score [7] was 0, the drug sensitivity score [8] was 0 and the drug sensitivity score [9] was 0. For the same compound, the drug sensitivity score [10] was 0, the drug sensitivity score [11] was 0.3 and the drug sensitivity score [12] was 0.8. The drug sensitivity score [13] was 0.6, the drug sensitivity score [14] was 1.7 and the drug sensitivity score [15] was 0.6. The drug sensitivity score [16] was 0.9.
For `CNC(=O)[C@@H](NC(=O)[C@H](CC(C)C)[C@H](O)C(=O)NO)C(C)(C)C` [Marimastat], the drug sensitivity score [1] was 0.9, the drug sensitivity score [2] was 0 and the drug sensitivity score [3] was 0. The drug sensitivity score [4] was 0, the drug sensitivity score [5] was 0 and the drug sensitivity score [6] was 0. The drug sensitivity score [7] was 0.1, the drug sensitivity score [8] was 0.4 and the drug sensitivity score [9] was 0. The drug sensitivity score [10] was 0, the drug sensitivity score [11] was 0 and the drug sensitivity score [12] was 0. The drug sensitivity score [13] was 0.6, the drug sensitivity score [14] was 3.6 and the drug sensitivity score [15] was 0. It also gave a drug sensitivity score [16] of 0.
For `Cc1ccc(NC(=O)c2ccc(CN3CCN(C)CC3)cc2)cc1Nc1nc(-c2cccnc2)cs1` [Masitinib], the drug sensitivity score [1] was 2.8, the drug sensitivity score [2] was 2.4 and the drug sensitivity score [3] was 4.8. It also gave a drug sensitivity score [4] of 3.6, a drug sensitivity score [5] of 0.9 and a drug sensitivity score [6] of 4.4. The drug sensitivity score [7] was 2.7, the drug sensitivity score [8] was 3.9 and the drug sensitivity score [9] was 5.4. It also gave a drug sensitivity score [10] of 4.2, a drug sensitivity score [11] of 2.6 and a drug sensitivity score [12] of 5.6. It also gave a drug sensitivity score [13] of 2.2, a drug sensitivity score [14] of 3.9 and a drug sensitivity score [15] of 0. It also gave a drug sensitivity score [16] of 1.2.
For `CC(=O)O[C@]1(C(C)=O)CC[C@H]2[C@@H]3C=C(C)C4=CC(=O)CC[C@]4(C)[C@H]3CC[C@@]21C` [Megestrol acetate], the drug sensitivity score [1] was 0.3, the drug sensitivity score [2] was 0 and the drug sensitivity score [3] was 0. The drug sensitivity score [4] was 0.2, the drug sensitivity score [5] was 0 and the drug sensitivity score [6] was 0.4. For the same compound, the drug sensitivity score [7] was 0, the drug sensitivity score [8] was 0 and the drug sensitivity score [9] was 0. For the same compound, the drug sensitivity score [10] was 0, the drug sensitivity score [11] was 0 and the drug sensitivity score [12] was 0. The drug sensitivity score [13] was 0, the drug sensitivity score [14] was 0 and the drug sensitivity score [15] was 4.6. For the same compound, the drug sensitivity score [16] was 1.
For `Cc1ccc(C(=O)Nc2ccc(Oc3cc4cnn(C)c4cc3-c3cn[nH]c3)c(F)c2)c(=O)n1-c1ccc(F)cc1` [Merestinib], the drug sensitivity score [1] was 1.1, the drug sensitivity score [2] was 1.9 and the drug sensitivity score [3] was 4.4. For the same compound, the drug sensitivity score [4] was 1.3, the drug sensitivity score [5] was 0 and the drug sensitivity score [6] was 1.1. It also gave a drug sensitivity score [7] of 1.6, a drug sensitivity score [8] of 0 and a drug sensitivity score [9] of 0. For the same compound, the drug sensitivity score [10] was 0.3, the drug sensitivity score [11] was 0 and the drug sensitivity score [12] was 1.15. It also gave a drug sensitivity score [13] of 2.7, a drug sensitivity score [14] of 4 and a drug sensitivity score [15] of 0. The drug sensitivity score [16] was 1.4.
`CN(C)C(=N)NC(=N)N` [Metformin] was tested, and the drug sensitivity score [1] was 0, the drug sensitivity score [2] was 0 and the drug sensitivity score [3] was 0. It also gave a drug sensitivity score [4] of 0, a drug sensitivity score [5] of 0 and a drug sensitivity score [6] of 0. For the same compound, the drug sensitivity score [7] was 0, the drug sensitivity score [8] was 0 and the drug sensitivity score [9] was 0. For the same compound, the drug sensitivity score [10] was 0, the drug sensitivity score [11] was 0 and the drug sensitivity score [12] was 0. The drug sensitivity score [13] was 0, the drug sensitivity score [14] was 0 and the drug sensitivity score [15] was 0. For the same compound, the drug sensitivity score [16] was 0.
With `C[C@H]1C[C@@H]2[C@H]([C@@H](O)C[C@@]3(C)[C@H]2CC[C@]3(O)C(=O)CO)[C@@]2(C)C=CC(=O)C=C12` [Methylprednisolone] the drug sensitivity score [1] was 0, the drug sensitivity score [2] was 0 and the drug sensitivity score [3] was 0. The drug sensitivity score [4] was 0, the drug sensitivity score [5] was 0 and the drug sensitivity score [6] was 0.1. The drug sensitivity score [7] was 0.1, the drug sensitivity score [8] was 0.6 and the drug sensitivity score [9] was 0. It also gave a drug sensitivity score [10] of 0, a drug sensitivity score [11] of 0 and a drug sensitivity score [12] of 0. For the same compound, the drug sensitivity score [13] was 0, the drug sensitivity score [14] was 0 and the drug sensitivity score [15] was 0. For the same compound, the drug sensitivity score [16] was 0.
